This is an account of results in patent publication US10836734B2, “Spiroquinone derivative compound, production method thereof, and pharamaceutical composition for preventing or treating neurological disorders which contains same as active ingredient” (GACHON UNIVERSITY OF INDUSTRY-ACADEMIC COOPERATION …, priority 2016, dated 2020).

Assay [1] concerns the target acetylcholine esterase (eeAChE, EC 3.1.1.7) (Electrophorus electricus, UniProt O42275). Kind of assay: Acetylcholine esterase inhibition activity (ACh quantification colorimetric assay kit). Format: biochemical. The following applies: read-out: Residual activity of acetylcholine esterase (%); for remaining activity at 10 µM: 10 μM compound; for remaining activity at 30 µM: 30 μM compound. How it is done: Particularly, a quantitative kit (ACh quantification colorimetric assay kit from BioVision) was prepared in order to quantify acetylcholine esterase (eeAChE, EC 3.1.1.7) and acetylcholine chloride (ACh) of Electrophorus electricus and acetylcholine. To measure the enzyme inhibition activity of the compound of the example of the invention, the following experiment was performed based on the standardized method of the manufacturer of the Ach kit (Draczkowski, P. et al. Bba-Gen Subjects 1860, 967-974, doi:10.1016/j.bbagen.2015.11.006 (2016)).
First, acetylcholine esterase (eeAChE, EC 3.1.1.7) was dissolved in […] Tris-HCL buffer at the concentration of 5 μM. Acetylcholine chloride was dissolved in 20 mM Tris-HCL buffer, resulting in the preparation of a Tris-HCL aqueous solution containing 10 μM acetylcholine chloride. The compound of the example was prepared in different concentrations of 10 μM and 30 μM. The prepared acetylcholine chloride solution and the compound solution were mixed in 20 μM acetylcholine esterase. 20 minutes and 30 minutes after mixing, the color change of the quantitative kit was measured at 570 nm in order to evaluate the inhibitory effect of the compound particularly to inhibit acetylcholine esterase that decomposes acetylcholine into choline.
All the experiments were repeated at least twice, from which the mean values and the standard deviations were calculated.

In assay [2] the test system is murine microglial BV-2 cells. Kind of assay: Quantification of nitrite generation in LPS treated nerve cell line. Format: cell-based. As to conditions: Mus musculus; LPS treated BV-2 cells; FIG. 5; read-out: IC50 for nitric oxide. Here is the method: Particularly, in order to quantify the nitrite generation in the LPS treated nerve cell line, nitrite generated from nitric oxide secreted therein was quantified. With the quantified nitrite, the inhibition of microglial activation and the neuron protection effect thereby were examined. The nerve cell line (BV2) was treated with LPS ([…]), and then treated with the compound of the present invention at different concentrations of 0.01 μM, 0.1 μM and 1 μM, or 1 μM, 5 μM and 10 μM (Con: DMSO treated group (not treated with the compound of the invention and LPS), LPS: LPS treated group ([…])).
Further, IC50 was calculated from the quantification of nitric oxide measured by concentration gradient in FIGS. 1 and 3, and the results are shown in FIG. 5.

Chain of acetylcholine esterase (eeAChE, EC 3.1.1.7) (O42275 24-633): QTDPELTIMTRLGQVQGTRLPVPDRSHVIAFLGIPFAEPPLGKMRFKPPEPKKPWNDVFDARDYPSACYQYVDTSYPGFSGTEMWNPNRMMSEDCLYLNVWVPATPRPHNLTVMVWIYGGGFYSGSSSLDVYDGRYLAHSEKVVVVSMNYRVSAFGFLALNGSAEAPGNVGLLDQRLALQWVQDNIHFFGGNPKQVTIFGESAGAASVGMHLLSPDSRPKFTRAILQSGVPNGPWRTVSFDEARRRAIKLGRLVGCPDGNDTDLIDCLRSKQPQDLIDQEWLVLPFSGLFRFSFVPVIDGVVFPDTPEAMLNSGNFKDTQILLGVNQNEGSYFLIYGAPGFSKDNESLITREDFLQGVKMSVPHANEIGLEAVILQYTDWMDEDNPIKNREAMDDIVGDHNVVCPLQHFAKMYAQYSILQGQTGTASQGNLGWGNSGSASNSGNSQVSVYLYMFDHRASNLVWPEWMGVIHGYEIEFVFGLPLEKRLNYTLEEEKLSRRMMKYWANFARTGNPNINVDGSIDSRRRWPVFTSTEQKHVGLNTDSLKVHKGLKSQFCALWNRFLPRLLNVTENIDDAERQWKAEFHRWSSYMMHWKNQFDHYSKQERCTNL

Turning to `CC1COC2(C=CC(=O)C=C2)N(c2ccccc2)C1=O` (stereo not drawn) [Example 2, 3-methyl-5-phenyl-1-oxa-5-azaspiro[5,5]undeca-7,10-diene-4,9-dione], in assay [1], the remaining activity at 10 µM was determined as 29.7% and the remaining activity at 30 µM is 7.03%.
As for `C=CCC1COC2(C=CC(=O)C=C2)N(c2ccccc2)C1=O` (stereo not drawn) [Example 3, 3-allyl-5-phenyl-1-oxa-5-azaspiro[5,5]undeca-7,10-diene-4,9-dione], in assay [1], the remaining activity at 10 µM was 30.3% and the remaining activity at 30 µM is -2.03%.
Take `O=C1C=CC2(C=C1)OCC(Cc1ccccc1)C(=O)N2c1ccccc1` (stereo not drawn) [Example 6, 3-benzyl-5-phenyl-1-oxa-5-azaspiro[5,5]undeca-7,10-diene-4,9-dione]: in assay [1], the remaining activity at 10 µM worked out at 40.2% and the remaining activity at 30 µM turned out to be 6.07%.
As for `O=C1C=CC2(C=C1)OCC(Cc1ccc(F)cc1)C(=O)N2c1ccccc1` (stereo not drawn) [Example 7, 3-(4-fluoro-benzyl)-5-phenyl-1-oxa-5-azaspiro[5,5]undeca-7,10-diene-4,9-dione], in assay [1], the remaining activity at 10 µM came to 46.7% and the remaining activity at 30 µM is 4.74%.
For `O=C1C=CC2(C=C1)OCC(Cc1ccc(Br)cc1)C(=O)N2c1ccccc1` (stereo not drawn) [Example 10, 3-(4-bromo-benzyl)-5-phenyl-1-oxa-5-azaspiro[5,5]undeca-7,10-diene-4,9-dione], in assay [1], the remaining activity at 10 µM came to 27.3% and the remaining activity at 30 µM amounted to 12.9%.
With `O=C1C=CC2(C=C1)OCC(Cc1ccc(C(F)(F)F)cc1)C(=O)N2c1ccccc1` (stereo not drawn) [Example 11, 3-(4-trifluoromethyl-benzyl)-5-phenyl-1-oxa-5-azaspiro[5,5]undeca-7,10-diene-4,9-dione], in assay [1], the remaining activity at 10 µM is 69.4% and the remaining activity at 30 µM turned out to be 22.1%.
`O=C1C=CC2(C=C1)OCC(Cc1cc(C(F)(F)F)cc(C(F)(F)F)c1)C(=O)N2c1ccccc1` (stereo not drawn) [Example 14, 3-(3,5-ditrifluoromethyl-benzyl)-5-phenyl-1-oxa-5-azaspiro[5,5]undeca-7,10-diene-4,9-dione]: the IC50 (commonly the concentration that gives 50% inhibition) in assay [2] is roughly 300 nM.
With `O=C1C=CC2(C=C1)OCC(Cc1ccccc1)C(=O)N2c1cccnc1` (stereo not drawn) [Example 19, 3-benzyl-5-(pyridine-3-yl)-1-oxa-5-azaspiro[5,5]undeca-7,10-diene-4,9-dione], in assay [1], the remaining activity at 10 µM worked out at 66.1% and the remaining activity at 30 µM turned out to be 8.07%.
`CC1COC2(C=CC(=O)C(F)=C2)N(c2ccccc2)C1=O` (stereo not drawn) [Example 22, 3-methyl-8-fluoro-5-phenyl-1-oxa-5-azaspiro[5,5]undeca-7,10-diene-4,9-dione]: in assay [1], the remaining activity at 10 µM amounted to 51.6% and the remaining activity at 30 µM was found to be 2.47%.
Turning to `C=CCC1COC2(C=CC(=O)C(F)=C2)N(c2ccccc2)C1=O` (stereo not drawn) [Example 23, 3-allyl-8-fluoro-5-phenyl-1-oxa-5-azaspiro[5,5]undeca-7,10-diene-4,9-dione], in assay [1], the remaining activity at 10 µM stood at 38.1% and the remaining activity at 30 µM is 5.64%.
Take `O=C1C=CC2(C=C1F)OCC(Cc1ccccc1)C(=O)N2c1ccccc1` (stereo not drawn) [Example 24, 3-benzyl-8-fluoro-5-phenyl-1-oxa-5-azaspiro[5,5]undeca-7,10-diene-4,9-dione]: in assay [1], the remaining activity at 10 µM came out at 35.6% and the remaining activity at 30 µM is 8.89%.
Regarding `CC1=CC2(C=CC1=O)OCC(C)C(=O)N2c1ccccc1` (stereo not drawn) [Example 25, 3,8-dimethyl-5-phenyl-1-oxa-5-azaspiro[5,5]undeca-7,10-diene-4,9-dione], in assay [1], the remaining activity at 10 µM turned out to be 20.9% and the remaining activity at 30 µM amounted to 8.15%.
In the case of `CC1=CC2(C=CC1=O)OCC(Cc1ccccc1)C(=O)N2c1ccccc1` (stereo not drawn) [Example 28, 3-benzyl-8-methyl-5-phenyl-1-oxa-5-azaspiro[5,5]undeca-7,10-diene-4,9-dione], in assay [1], the remaining activity at 10 µM is 55.4% and the remaining activity at 30 µM worked out at 3.08%.
For `CN1C(=O)C(Cc2ccccc2)COC12C=CC(=O)C=C2` (stereo not drawn) [Example 33, 3-benzyl-5-methyl-1-oxa-5-azaspiro[5,5]undeca-7,10-diene-4,9-dione], in that order: 50.5% and 2.08%.
